Results as given in US20250244310A1, “METHODS OF IDENTIFICATION AND TARGETING OF MASTER KINASES IN CANCER” (The Trustees of Columbia University in the City of New York, priority 2022, published 2025).

Assays:
[1] = system: phosphorylation of PKCδ on tyr-311; test: Western blot of GPM PDOs incubated with IGF-I, IGF-II or insulin; type: cell-based, human; conditions: IGF-I 10 ng/ml, IGF-II 10 ng/ml, insulin 100 ng/ml, FIGS. 14b, c
From the text: (§1) V9131), and j-actin 1:10,000 (Sigma, no. A5441).

PPR GBM PDOs = test: Irradiation-drug combination viability, PPR PDOs; type: cell-based, human
Method: (§2) Cells were cultured in DMEM/F12 medium supplemented with N-2, B-27, EGF and FGF. Cells were plated in 130 μl in opaque white 96-well plates. Twenty-four hrs later cells were treated with 3-fold serial dilutions of compounds as indicated in six replicates for 72 hrs. Viability was determined using CellTiterGlo assay reagent (Promega, G7570) and GloMax-Multi+ Microplate Multimode Reader (Promega). For the irradiation-drug combination treatment, PDOs cells were plated in 96 well plates 24 hrs before treatment. Cells were treated with 3-fold serial dilutions of M3814 two hrs before exposure to various irradiation doses (2, 4, 8 Gy at 0.7 Gy/min) from a ^137Cs source (GammaCell 40 irradiator, Teratronics). Mock irradiated cells were cultured in parallel. Viability was determined 96 hrs later using CellTiterGlo assay reagent (Promega, G7570) and GloMax-Multi+ Microplate Multimode Reader (Promega). Data are mean±s.d. of the viability ratio from 6 observations in 8 PPR and 8 GPM PDOs. Experiments were performed at least twice with similar results. Clonogenic assays for the evaluation of irradiation-drug combination were performed in 96 well plates. Each experimental point was plated in 3 independent 96 well plates. The number of wells containing PDO spheres were scored and the value of control untreated cell was considered 100% clonogenicity for the specific PDO. […]

GPM PDOs = test: Irradiation-drug combination viability, GPM PDOs; type: cell-based, human; conditions: eight GPM PDOs; FIG. 5k
Method: as §2

[2] = system: phosphorylation of serine-343 of NBS1 and serine-824 of KAP1; test: Western blot of PPR PDO cells, irradiation plus nedisertib: double-strand break markers; type: cell-based, human; conditions: PPR PDOs, until 24 hours after irradiation, FIG. 5l
From the text: as §1

γH2AX foci = test: Immunofluorescence analysis of γH2AX foci in PPR PDO cells; type: cell-based, human; conditions: IR 4 Gy plus nedisertib 556 nM, 0-24 hr, FIG. 5m
Method: Cells were fixed with 4% paraformaldehyde, permeabilized with cold methanol for 90 seconds at 4° C., and blocked with 5% BSA, 0.05% Triton X-100 in PBS for 30 minutes. Cells were exposed to primary antibody phospho-H2AX 1:500 (S139, CST, #2577) for one hour at room temperature followed by Cy3-conjugated anti rabbit (Invitrogen, A10520) for one hour at room temperature. Nuclei were stained with DAPI (Sigma). Images were acquired using a Nikon Ti Eclipse inverted microscope for spinning-disk confocal microscopy equipped with a Plan Apochromat 60× oil/1.4 NA DIC objective. Counting of TH2AX foci in individual nuclei were analyzed by ImageJ (NIH, Bethesda, USA) by specific in-built find Maxima>Prominence>Point Selection plug-in. Minimum 50 nuclei in at least ten representative images were included for analysis in each treatment group.

PPR and GPM PDOs = test: Clonogenic assay for irradiation-drug combination; type: cell-based, human; conditions: two PPR and GPM PDOs, irradiation plus nedisertib; FIG. 15b
Method: as §2

[3] = system: serine-2056 phosphorylation of DNA-PKcs; conditions: irradiated PPR PDO cells; FIG. 5l
Method: Cells were lysed in RIPA buffer (50 mM Tris-HCl pH 7.5, 150 mM NaCl, 1 mM EDTA, 1% NP40, 0.5% sodium dexoycholate, 0.1% sodium dodecyl sulfate, 1.5 mM Na3VO4, 50 mM sodiumfluoride, 10 mM sodium pyrophosphate, 10 mM β-glycerolphosphate and EDTA-free protease inhibitor cocktail; Roche). Lysates briefly sonicated, cleared by centrifugation at 15,000 r.p.m. for 15 min at 4° C., separated by SDS-polyacrylamide gel electrophoresis and transferred to polyvinylidene difluoride membrane. Membranes were blocked in Tris-buffered saline with 5% nonfat milk and 0.1% Tween 20 and probed with primary antibodies overnight at 4° C. Antibodies0 and concentrations were as follows: p-DNA-PK 1:1,000 (Ser2056, CST, #68716), DNA-PK 1:1,000 (CST, #38168), p-NBS1 1:1,000 (Ser343, CST, #3001), NBS1 1:1,000 (CST, #81234), p-KAP1 1:1,000 (Ser824, Abcam, ab133440), KAP1 1:1,000 (Abcam, ab109287), p-CHK1 (Ser317, CST, #12302), CHK1 (CST, #2360), p-PKCδ 1:1,000 (Tyr311, CST, #20555), PKCδ 1:1,000 (CST, #96165), p-STAT3 1:1,000 (Tyr705, CST, #91455), STAT3 1:1,000 (CST, #49045) p-AKT 1:1,000 (Ser473, CST, #40605), p-AKT 1:1,000 (Thr308, CST, #13038S), AKT 1:1,000 (CST, #49615), p-ERK1/2 1:1,000 (Thr202/Tyr204, CST, #4370), ERK1/2 1:1,000 (CST, #9102), GAPDH 1:10,000 (Abcam, ab9484), Vinculin 1:10,000 (Sigma, no. V9131), and j-actin 1:10,000 (Sigma, no. A5441). […]

BRCA cell lines = test: DepMap menadione survival ratio, BRCA cell lines; type: cell-based; conditions: 26 BRCA cell lines from DepMap; p=0.008
From the text: (§3) We used the BRCA and LUSC cell lines cohorts from DepMap for which both RNA-Seq expression and menadione survival ratio from PRISM Repurposing Primary Screen were available (n=26 for BRCA and n=71 for LUSC)^94. For each cell line, we used the transcriptomic profile to calculated the NES of the four functional GBM subtypes by MWW-GST using gene signatures obtained from the analysis of TCGA samples. Each cell line was classified according the highest subtype activity (NES). We assessed the difference in survival ratio between the mitochondrial cell lines and the others using two-sided Student t-test, unequal variance.

LUSC cell lines = test: DepMap menadione survival ratio, LUSC cell lines; type: cell-based; conditions: 71 LUSC cell lines from DepMap; p=0.076
From the text: as §3

GPM PDO cells = test: Colony-forming (clonogenic) assay of GPM PDO cells treated with BJE6-106; type: cell-based, human; conditions: FIG. 5c
Method: Cell growth and clonogenic assay. Time course analysis of the cellular growth of shPRKCD infected PDOs or the empty vector was performed by plating 4,500 cells per well in 96-well plates. Viability was determined using CellTiterGlo assay reagent (Promega, G7570) and the GloMax-Multi+ Microplate Multimode Reader (Promega). Data are mean±s.d. of five replicates, and experiments were repeated twice. For clonogenic assay of PDO cells treated with increasing concentration of BJE6-106, 1,500 cells were plated in 6-well plates in triplicate. Cells were fixed in methanol and stained with crystal violet 2 weeks later. Colonies with more than 50 cells were scored. Data are mean±s.d. of triplicate observations from one representative experiment. Experiments were repeated twice.

[4] = system: AKT-ser-473 and STAT3-tyr-705 phosphorylation; test: Western blot of GPM PDO cells treated with BJE6-106; type: cell-based, human; conditions: BJE6-106 at 50 µM, time course, FIG. 5d
From the text: as §1

For “IGF2: growth factor used to stimulate GPM PDOs (10 ng/ml)”, the “phosphorylation of PKCδ on tyr-311” value [1] was “induced phosphorylation of PKCδ on tyr-311”.
In the case of “IGF1: growth factor used to stimulate GPM PDOs (10 ng/ml)”, the “phosphorylation of PKCδ on tyr-311” value [1] is reported as “induced phosphorylation of PKCδ on tyr-311”.
`COc1ccc([C@@H](O)c2cc(-c3ncnc4cc(N5CCOCC5)ccc34)c(F)cc2Cl)nn1` [nedisertib] was tested, and the “tumor cell viability, nedisertib-IR combination compared to each individual treatment” value (PPR GBM PDOs; eight PPR GBM PDOs, FIG. 5k) was “marked reduction of tumor cell viability”, the “radiation dose enhancement factor (DEF)” value (PPR GBM PDOs; six of the eight PPR PDOs, even at the lowest concentrations of nedisertib) was over 2 and the “effect of nedisertib-IR combination on viability” value (GPM PDOs) was “virtually ineffective”. For the same compound, the “phosphorylation of serine-343 of NBS1 and serine-824 of KAP1 (unrepaired DNA damage)” value [2] was “sustained phosphorylation of serine-343 of NBS1 and serine-824 of KAP1”, the “number of γH2AX foci” value (γH2AX foci) was “remained elevated throughout the course of the experiment” and the “radiosensitivity by clonogenic assay” value (PPR and GPM PDOs) was “confirmed these results”. The “serine-2056 phosphorylation of DNA-PKcs” value [3] was “inhibited serine-2056 phosphorylation of DNA-PKcs”.
In the case of “insulin: hormone used to stimulate GPM PDOs (100 ng/ml)”, the “phosphorylation of PKCδ on tyr-311” value [1] is reported as “induced phosphorylation of PKCδ on tyr-311”.
In the case of `CC1=CC(=O)c2ccccc2C1=O` [menadione], the “menadione survival ratio, difference between mitochondrial cell lines versus the others, log2(FC)” value (BRCA cell lines) is reported as −1.31 and the “menadione survival ratio, difference between mitochondrial cell lines versus the others, log2(FC)” value (LUSC cell lines) is reported as −0.63.
For `CC1(C)C=Cc2cc(CCn3c4ccccc4c4ccccc43)cc(C=O)c2O1` [BJE-10676], the colony formation (GPM PDO cells) was “dose-dependent inhibition of colony formation” and the “AKT-ser-473 and STAT3-tyr-705 phosphorylation” value [4] was “time-dependent decrease of AKT-ser-473 and STAT3-tyr-705 phosphorylation”.
